Reference: patent US9809521B2, “Cannabidinoid derivatives” (priority 2011, dated 2017)
Read-outs that look alike come from different tables or passages of the source.

Assays:
ROS = ROS measurement in MDA-MB231 cells; type: cell-based, human; conditions: for generation of ROS: two days, approximate IC50 for CBD and THC
From the text: In culture, CBD-induced generation of ROS is a primary mechanism that leads to inhibition of cell growth, invasion, and survival across multiple cancers. The generation of ROS by CBD leads to the inhibition of Id-1 expression in breast cancer cells. […] The ability of CBD and the O-1663 CBD analog to stimulate the production of ROS was next compared. […] The involvement of CB2 receptors in the productions of ROS produced by CBD and the O-1663 CBD analog was next investigated.

MDA-MB231 cells = assay: Boyden chamber invasion assay; type: cell-based, human; conditions: for IC50: Homo sapiens
Experimental: Boyden chamber MDA-MB231 cell invasion studies with CBD, Δ^9-THC, or WIN 55,212-2. Invasion is an important step towards breast cancer cell metastasis. Therefore, the effects of several cannabinoids were tested on their ability to modulate the migratory and invasiveness activity of the most aggressive human breast cancer cell line, MDA-MB231, in a reconstituted basement membrane in a Boyden chamber.
Assays using Id-1 promoter reporter transfected MDA-MB231 cells with CBD. To determine if Id-1 represented a key mediator of CBD effects in highly aggressive breast cancer cells, Id-1 was constitutively expressed into MDA-MB231 cells (+)Id-1 as described in FIG. 2. The ectopic Id-1 gene, which is not under the control of the endogenous promoter, was introduced in the cells using the pLXSN retroviral vector. As a control, cells were infected with an empty pLXSN vector (−)Id-1.
Boyden chamber MDA-MB231 cell invasion studies with CBD and O-1663 CBD analog. Boyden chamber studies for invasion by MDA-MB231 or U251 cells were performed with either CBD or O-1663 CBD analog.
To directly test whether the O-1663 CBD analog could co-target two distinct cannabinoid antitumor pathways, the effects of CBD and the O-1663 CBD analog on cell viability with multiple antagonists were probed (FIG. 25). […] The ability of the O-1663 CBD analog and CBD to inhibit invasion was next compared (FIG. 25, panel C).

4T1 cells [1] = assay: 4T1 i.v. mouse model of breast cancer metastasis, treatment from one day after injection; type: in vivo; conditions: for total amount of metastatic foci: 1 mg/kg i.p., 2 days after injection; for effect of CB2 receptor antagonist SR14458 on anti-metastatic activity: 14 days
Experimental: In-vivo model of breast cancer metastases: 4T1 cells were injected directly into the tail vein of syngeneic BALB/c mice. […] Two days after i.v. injection of 4T1 cells, the tumor bearing mice were injected i.p. once a day with vehicle or compound (1 mg/kg).
The 4T1 intravenous (i.v.) mouse model of breast cancer metastasis to assess the activity of CBD in vivo was utilized. […] One day after i.v. injection of the breast cancer cells, mice were treated daily for two weeks by intra-peritoneal injection with vehicle (used as a control) or CBD at a dose range of 0.1 to 5 mg/kg.
A survival study was carried out (FIG. 4, panel C).
To provide further support for this hypothesis in vivo, mice bearing 4T1 tumors were treated with CBD and the O-1663 CBD analog in the presence of a CB2 receptor antagonist (FIG. 27, panels D and E). […] In addition, a combination treatment with CBD and THC was included.
In-vivo studies of breast cancer metastases with CBD or O-1663 CBD analog. 4T1 cells were injected into the tail vein of syngeneic BALB/c mice and then were intraperitoneal injected 2 days later with either vehicle, CBD (1 mg/kg), or O-1663 CBD analog (1 mg/kg).

Id-1 = assay: Quantitative Western analysis of Id-1 protein expression in MDA-MB231 cells; type: cell-based, human; conditions: for Id-1 expression: 1 μM, both MDA-MB231 and 4T1 cells
Experimental: Quantitative Western analysis of Id-1 Expression in MDA-MB231 cells with CBD, Δ^9-THC, or WIN 55,212-2. The ability of CBD to regulate the expression of key genes that control breast cancer cell aggressiveness and invasiveness was determined.
SAR Analysis of Id-1 expression in MDA-MB231 cells with (Abn)-CBD receptor, Abn-CBD, O-1602, CP55,940, THC, CBN, or CBD. In order to determine the structure activity relationship (“SAR”) between cannabinoids and the inhibition of Id-1, MDA-MB231 cells were treated for two days with multiple cannabinoid compounds and Id-1 protein levels were assessed.
Quantitative Western analysis of Id-1 expression in MDA-MB231 cells and U251 cells with CBD or O-1663 CBD analog. […] MDA-MB231 breast cancer cells and U251 GBM cells were treated with 1.0 μM of cannabinoid for two days and then analyzed for Id-1 protein expression by quantitative Western analysis.

4T1 cells [2] = assay: 4T1 i.v. mouse model, advanced stage metastasis, treatment from day seven; type: in vivo; conditions: for medium increase in survival: 0.5 or 1 mg/kg daily from seven days after injection
Experimental: To determine whether CBD could inhibit the formation of lung tumor foci in more advanced stages of metastasis, mice were treated at a time point where visual lung metastatic foci were already formed (as shown at day seven in FIG. 7, panel A). Mice were injected i.v. with 4T1 cells were kept for one week in order to allow for the formation of visible lung metastatic foci. The mice were then treated with CBD.
In-vivo late stage metastatic studies using a Xenograph mouse model for human breast cancer with CBD. […] Lung metastases were generated in BALB/c mice after tail vein injection of 20×10^5 mouse 4T1 cells. […] One week after the tail vein injection of 20×10^5 mouse 4T1 cells, the tumor bearing mice were injected i.p. once a day with vehicle or 1 mg/kg and 10 mg/kg CBD for seven days. Visible lung metastases were counted and measured by using a dissecting microscope.
The activity of CBD and the O-1663 CBD analog to inhibit the formation of lung tumor foci in more advanced stages of metastasis was then compared. Mice were treated at a time point where visual lung metastatic foci were already formed. Mice were injected i.v. with 4T1 cells and kept for one week in order to allow for the formation of visible lung metastatic foci. The mice were then treated with CBD and the O-1663 CBD analog. […] A survival study was then carried out where the activity of CBD to O-1663 CBD analog was compared (FIG. 28, panel C).
In-vivo advanced stage metastasis survivability studies in a mouse model with CBD or O-1663 CBD analog. To determine whether cannabinoids could inhibit the formation of lung tumor foci in more advanced stages of metastasis, we treated mice at a time point where visual lung metastatic foci were already formed (FIG. 30, panel A). Mice injected tail vein with 4T1 cell were kept for one week in order to allow for the formation of visual lung metastatic foci measuring up to 1 mm. The mice where then treated with drug for two months.

U251 cells = assay: MTT cell proliferation assay; conditions: Homo sapiens

C=C(C)[C@@H]1CCC(C)=C[C@H]1c1c(O)cc(CCCCC)cc1O [CBD, cannabidiol]
reversal of ROS in the presence of SR14458 (ROS): small but significant reversal of ROS | generation of ROS (ROS): robust up-regulation of ROS | cell invasiveness, (+)Id-1 cells (MDA-MB231 cells; 1.5 μM, two days, cells ectopically expressing Id-1): did not inhibit cell invasiveness | cell invasiveness, control (−)Id-1 cells (MDA-MB231 cells; 1.5 μM, two days, empty pLXSN vector): significant reduction in cell invasiveness | invasion of MDA-MB231 cells (MDA-MB231 cells; 0.1, 1.0 or 1.5 μM): significantly reduced the invasion | IC50 (MDA-MB231 cells; MDA-MB-231, 72 h, treated 3 days, modified Boyden chambers, read-out: IC50, invasion of MDA-MB231 cells): 1000 nM | IC50 (MDA-MB231 cells; MDA-MB-231, Boyden chamber, confidence limits 110-610, read-out: IC50 for invasion): 260 nM | median increase in survival (4T1 cells [1]; 1 mg/kg daily from one day after injection): seven | total amount of metastatic foci (4T1 cells [1]): reduction of the total amount of metastatic foci | effect of CB2 receptor antagonist SR14458 on anti-metastatic activity (4T1 cells [1]; 1 mg/kg): not affected by co-administration with SR14458 | inhibition of total breast cancer metastasis (4T1 cells [1]; i.p. daily two weeks, 0.1 to 5 mg/kg): up to 75% | EC50, total breast cancer metastasis (4T1 cells [1]; i.p. daily two weeks, CI=0.2-0.5): 0.3 mg/kg | Id-1 expression (Id-1): partial reduction of Id-1 expression | inhibition of Id-1 (structure activity relationship) (Id-1; 1.5 μM, two days): greatest inhibition of Id-1 | Id-1 protein expression (Id-1; 0.1, 1.0, 1.5 μM, three days): concentration-dependent inhibition of Id-1 protein expression | concentration at which inhibitory effect on Id-1 expression occurred (Id-1; three days): ≥ 100 nM | reduction in the number of metastases (4T1 cells [2]; 1 mg/kg and 10 mg/kg i.p. for seven days, from one week after injection): ≥ 70% | median increase in survival (4T1 cells [2]; 1 mg/kg starting on day seven): only a day | growth of established lung metastatic foci (4T1 cells [2]; 0.5, 1 or 10 mg/kg i.p. for seven days): dose-dependently reduced the growth of established lung metastatic foci | medium increase in survival (4T1 cells [2]): 4 days | average median survival (4T1 cells [2]; treatment from one week after injection): 38 days | IC50 (U251 cells; U-251, 72 h, read-out: CBD IC50, U251): 600 nM | IC50 (U251 cells; U-251, read-out: IC50, U251): 2900 nM

CCCCC(C)(C)c1cc(O)c(C2CCC(C3CCCCC3)CC2)c(O)c1 (stereo not shown) [Compound O-1663]
ROS reversed in the presence of SR14458 (ROS): > 50% | generation of ROS (ROS): significantly more potent and efficacious than CBD at generating ROS | fold more potent than CBD at inhibiting invasion (MDA-MB231 cells): 1.7 fold | invasion by the cancerous cells compared with CBD (MDA-MB231 cells; 1.0 μM, two days, MDA-MB231 or U251 cells): far superior to CBD in inhibiting invasion | IC50 (MDA-MB231 cells; MDA-MB-231, 72 h, read-out: IC50, invasion of MDA-MB231 cells): 600 nM | animals with a metastatic foci >2 mm (4T1 cells [1]; 1 mg/kg): one of five animals | total amount of metastatic foci (4T1 cells [1]): reduction of the total amount of metastatic foci | effect of CB2 receptor antagonist SR14458 on anti-metastatic activity (4T1 cells [1]; 1 mg/kg): partially reversed by the antagonist | fold more potent than CBD at inhibiting lung metastatic foci>2 mm (4T1 cells [1]; mouse, in vivo): 7.0 fold | fold more potent than CBD at inhibiting total metastasis (4T1 cells [1]; mouse, in vivo): 2.3 fold | Id-1 protein expression compared with CBD (Id-1; 1.0 μM, two days, MDA-MB231 and U251 cells): downregulated Id-1 protein expression to a far greater extent than CBD | Id-1 expression (Id-1): almost a complete down-regulation of Id-1 expression | reduction of percent metastasis compared with CBD (4T1 cells [2]; 0.5 and 1 mg/kg): significantly more potent than CBD in reducing percent metastasis | medium increase in survival (4T1 cells [2]): 30 days | mice without visible lung metastatic foci (4T1 cells [2]; dissection microscope): 20% | mice still alive at end of study (4T1 cells [2]; treatment from day seven, 2 months): 50% | IC50 (U251 cells; U-251, read-out: IC50, U251): 530 nM
